Here are results for two molecules from article PMC3747139 (PLoS ONE, 2013).

The structures appear in SMILES notation.

For one assay, the system named is telomerase. The arrangement: method as in PMID 10741725. Particulars: cited from earlier work.
The subject of assay [1] is dsDNA (poly-dA-dT and poly-dT-dA). The assay can be described thus: SYBR Green melting study with dsDNA. It is filed as binding. Particulars: 5 µM dsDNA, 1 µM ligand; dsDNA alone 24°C. Here is the method:
When quadruplex DNA melts to form ssDNA structure, SG fluorescence intensity gradually reduces as SG has no binding to ssDNA. Each time, 5 µM of HQF DNA [d(T2AG3)4)], 5 µM of dsDNA (prepared by mixing equal concentration of poly-dA-dT and poly-dT-dA), 5 µM ssDNA ( poly dT alone) and 1 µM of each ligand was incubated at 4°C for 16 h, and used for melting studies. […] Affinity, stoichiometry and thermodynamic parameters for quadruplex-ligand complex were studied with 60 µM of ligand and 10 µM of HQF DNA using Microcal VP-ITC (Northampton, MA, USA). Ligand addition to G-quadruplex DNA was made every 180 seconds. Titration experiments were performed thrice and blank correction was made each time to minimize error.

For a further assay, the system named is NQF DNA. Briefly: Stop assay (inhibition of in vitro DNA synthesis) with NQF DNA. It is filed as biochemical. To be noted: 5 µM NQF DNA. The method, then:
The G-quadruplex structure forming region of QF oligonucleotide is shown in bold letters.
To the PCR reaction mixture (25 µl) containing 10 mM Tris-HCl, pH 8.3, with 50 mM KCl, 1.5 mM Mg(OAc)2, 5 µM of each oligonucleotide, 1 mM dNTPs, 5 units of Taq polymerase, L1, L2, L3 were added at various concentrations (50 µM, 100 µM, 150 µM, 200 µM), and PCR reactions were performed. PCR mixture without any ligand was considered as control. The primers were 5′ end-labelled with [γ-^32P] ATP using 1 µl of polynucleotide kinase and 5 µl of 10× kinase buffer and the contents were incubated at 37°C for 5 min. Stop assay was performed using an ABI thermal cycler. Initial denaturation was done at 94°C for 3 min, followed by 20 repeated cycles each having 94°C for 30 sec, 58°C for 30 sec, and 72°C for 30 sec. After PCR, 5 µl of the amplified product was loaded on a 12% non-denaturing polyacrylamide gel with 1×TBE. The in vitro DNA synthetic band intensity was measured using Bio Rad Gel Doc XR+system (USA). The band intensity of the PCR product obtained with no ligand was taken as control for all the quadruplex forming DNA samples (QF DNA). Percentage of DNA synthesis inhibition was calculated using equation 1, whereas, inhibition constant, Ki (using Cheng-Prusoff equation) for each ligand was calculated by using equation 2. [drawing 2] (1)

In the case of `Cc1cn([C@H]2C[C@H](N=[N+]=[N-])[C@@H](CO)O2)c(=O)[nH]c1=O` [Ligand L1, 1-(4-azido 5-(hydroxylmethyl)tetrahydrofuran-2-yl)-5-methyl pyrimidi-ne-2,4(1H,3H)-dione, reference compound], in the assay with telomerase, the “concentration reported to inhibit telomerase” value is recorded as “around 200 µM”.

For the molecule `Cc1cn([C@H]2C[C@H](n3cc(-c4ccc(Cl)cc4)nn3)[C@@H](CO)O2)c(=O)[nH]c1=O` [Ligand L3, 1-(4-(4-(4-chlorophenly)-1H-1,2,3-triazole-1-yl)-5-(hydroxymethyl)tetrahydrofuran-2-yl)-5-methylpyrimidine-2,3(1H,3H)-dione], the “Tm of dsDNA with ligand” value in assay [1] is 25 °C. In addition, the “inhibition of in vitro DNA synthesis with NQF DNA” value in the assay on NQF DNA was “around 33%”.
